In patent publication US20110130426A1, “Novel Sulphonamide Derivatives as Glucocorticoid Receptor Modulators for the Treatment of Inflammatory Diseases” (ASTRAZENECA AB, priority 2004, published 2011):

Target: T1, recombinant human GR (Homo sapiens, UniProt P04150)
T1 construct: purchased Panvera/Invitrogen P2812 (kit P2893)
T1 sequence (P04150 1-777): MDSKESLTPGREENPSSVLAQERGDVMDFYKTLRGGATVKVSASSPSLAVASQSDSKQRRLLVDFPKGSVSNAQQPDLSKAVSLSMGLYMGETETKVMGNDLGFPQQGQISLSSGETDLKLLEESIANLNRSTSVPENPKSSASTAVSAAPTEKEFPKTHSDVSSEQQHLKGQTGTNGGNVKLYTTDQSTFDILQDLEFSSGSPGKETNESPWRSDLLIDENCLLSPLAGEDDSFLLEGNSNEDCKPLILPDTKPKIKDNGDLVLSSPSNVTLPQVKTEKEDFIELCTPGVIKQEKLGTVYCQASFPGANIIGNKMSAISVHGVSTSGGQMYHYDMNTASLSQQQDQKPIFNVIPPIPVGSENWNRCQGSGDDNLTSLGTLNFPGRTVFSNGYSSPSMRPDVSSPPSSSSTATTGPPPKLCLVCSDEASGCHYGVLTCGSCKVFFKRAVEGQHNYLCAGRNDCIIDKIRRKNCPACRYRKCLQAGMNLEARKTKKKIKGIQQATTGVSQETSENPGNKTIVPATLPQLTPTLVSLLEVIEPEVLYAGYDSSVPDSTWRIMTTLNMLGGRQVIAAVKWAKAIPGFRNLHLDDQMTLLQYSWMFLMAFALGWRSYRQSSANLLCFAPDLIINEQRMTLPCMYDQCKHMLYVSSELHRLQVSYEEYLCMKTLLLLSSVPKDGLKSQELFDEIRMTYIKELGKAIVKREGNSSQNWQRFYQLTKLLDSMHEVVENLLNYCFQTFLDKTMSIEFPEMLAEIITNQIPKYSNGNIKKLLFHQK
Assay: Human Glucocorticoid Receptor (GR) Assay, fluorescence polarization
Format: binding
Settings: GS Red tracer, 2 hours at room temperature
Experimental: Human Glucocorticoid Receptor (GR) Assay
The assay is based on a commercial kit from Panvera/Invitrogen (Part number P2893). The assay technology is fluorescence polarization. The kit utilises recombinant human GR (Panvera, Part number P2812), a Fluoromone™ labelled tracer (GS Red, Panvera, Part number P2894) and a Stabilizing Peptide 10X (Panvera, Part number P2815). The GR and Stabilizing Peptide reagents are stored at −70° C. while the GS Red is stored at −20° C. Also included in the kit are 1M DTT (Panvera, Part number P2325, stored at −20° C.) and GR Screening buffer 10X (Panvera, Part number P2814, stored at −70° C. initially but once thawed stored at room temperature). Avoid repeated freeze/thaws for all reagents. The GR Screening buffer 10X comprises 100 mM potassium phosphate, 200 mM sodium molybdate, 1 mM EDTA and 20% DMSO.
Test compounds (1 μL) and controls (1 μL) in 100% DMSO were added to black polystyrene 384-well plates (Greiner low volume black flat-bottom, part number 784076). 0% control was 100% DMSO and 100% control was 10 μM Dexamethasone. Background solution ([…]; assay buffer 10X, Stabilizing Peptide, DTT and ice cold MQ water) was added to the background wells. GS Red solution (7 μL; assay buffer 10X, Stabilizing Peptide, DTT, GS Red and ice cold water) was added to all wells except background wells. GR solution (7 μL; assay buffer 10X, Stabilizing Peptide, DTT, GR and ice cold water) was added to all wells. The plate was sealed and incubated in a dark at room temperature for 2 hours. The plate was read in an Analyst plate reader (LJL Biosystems/Molecular Devices Corporation) or other similar plate reader capable of recording fluorescence polarization (excitation wavelength 530 nm, emission wavelength […] and a dichroic mirror at 561 nm). The IC50 values were calculated using XLfit model 205.

Compound	IC50 [nM]
Cc1ccc(C)c(S(=O)(=O)Nc2cccc(CCc3ccccn3)c2)c1 [Compound 49]	350
Cc1onc(-c2ccccc2)c1CNS(=O)(=O)c1ccc(-c2ccccc2)cc1 [Example 5, Biphenyl-4-sulfonic acid (5-methyl-3-phenyl-isoxazol-4-ylmethyl)-amide]	370
CCCCOc1ccc(S(=O)(=O)NCc2c(-c3ccccc3)noc2C)cc1 [Example 6, 4-n-Butoxy-N-(5-methyl-3-phenyl-isoxazol-4-ylmethyl)-benzenesulfonamide]	700
O=[N+]([O-])c1ccc(S(=O)(=O)NCc2ccc(-c3ccc(Cl)cc3)s2)cc1 [Example 20, N-{[5-(4-Chlorophenyl)-2-thienyl]methyl}-4-nitrobenzenesulfonamide]	59
O=S(=O)(Nc1cccc(CCc2ccccn2)c1)c1ccc(Cl)s1 [Example 33, 5-Chloro-N-[3-(2-pyridin-2-ylethyl)phenyl]thiophene-2-sulfonamide]	650
O=S(=O)(Cc1ccc(Cl)cc1)NCc1ccc(-c2ccc(Cl)cc2)s1 [Example 34, 1-(4-Chlorophenyl)-N-{[5-(4-chlorophenyl)-2-thienyl]methyl}methanesulfonamide]	660
Cc1cc(S(=O)(=O)Nc2cccc(CCc3ccccn3)c2)c(C)o1 [Example 35, 2,5-Dimethyl-N-[3-(2-pyridin-2-ylethyl)phenyl]furan-3-sulfonamide]	710
Cc1nn(C(F)F)c(C)c1S(=O)(=O)Nc1cccc(CCc2ccccn2)c1 [Example 36, 1-(Difluoromethyl)-3,5-dimethyl-N-[3-(2-pyridin-2-ylethyl)phenyl]-1H-pyrazole-4-sulfonamide]	810
N#Cc1cccc(S(=O)(=O)NCc2ccc(-c3ccc(Cl)cc3)s2)c1 [Example 37, N-{[5-(4-Chlorophenyl)-2-thienyl]methyl}-3-cyanobenzenesulfonamide]	820
N-{[5-(4-Chlorophenyl)-2-thienyl]methyl}-3-(4-methylphenoxy)benzenesulfonamide [Example 32]	390
N-{[5-(4-Chlorophenyl)-2-thienyl]methyl}-4-(pyridin-2-yloxy)benzenesulfonamide [Example 25]	170

Next, values leading:

IC50 [nM]	Compound
14	COc1cc(C)c(S(=O)(=O)NCc2c(-c3ccccc3)noc2C)c(C)c1C [Example 1, 4-Methoxy-2,3,6-trimethyl-N-(5-methyl-3-phenyl-isoxazol-4-ylmethyl)-benzenesulfonamide]
35	Cc1onc(-c2ccccc2)c1CNS(=O)(=O)c1ccc(-c2ccc(F)cc2)cc1 [Example 2, 4′-Fluoro-biphenyl-4-sulfonic acid (5-methyl-3-phenyl-isoxazol-4-ylmethyl)-amide]
36	Cc1cc(C)c(S(=O)(=O)NCc2ccc(-c3ccc(Cl)cc3)s2)c(C)c1 [Example 19, N-{[5-(4-Chlorophenyl)-2-thienyl]methyl}-2,4,6-trimethylbenzenesulfonamide]
62	O=S(=O)(NCc1ccc(-c2ccc(Cl)cc2)s1)c1ccc(F)cc1 [Example 21, N-{[5-(4-Chlorophenyl)-2-thienyl]methyl}-4-fluorobenzenesulfonamide]
99	Cc1c(S(=O)(=O)Nc2cccc(CCc3ccccn3)c2)cnn1-c1ccccc1 [Example 22, 5-Methyl-1-phenyl-N-[3-(2-pyridin-2-ylethyl)phenyl]-1H-pyrazole-4-sulfonamide]
110	Cn1nc(-c2ccc(S(=O)(=O)Nc3cccc(CCc4ccccn4)c3)s2)cc1C(F)(F)F [Example 23, 5-[1-Methyl-5-(trifluoromethyl)-1H-pyrazol-3-yl]-N-[3-(2-pyridin-2-ylethyl)phenyl]-thiophene-2-sulfonamide]
170	O=S(=O)(NCc1ccc(-c2ccc(Cl)cc2)s1)c1ccccc1Br [Example 24, 2-Bromo-N-{[5-(4-chlorophenyl)-2-thienyl]methyl}benzenesulfonamide]
200	COc1ccc(S(=O)(=O)NCc2ccc(-c3ccc(Cl)cc3)s2)cc1 [Example 26, N-{[5-(4-Chlorophenyl)-2-thienyl]methyl}-4-methoxybenzenesulfonamide]
200	O=S(=O)(Nc1cccc(CCc2ccccn2)c1)c1ccc(-c2ccccn2)s1 [Example 27, 5-Pyridin-2-yl-N-[3-(2-pyridin-2-ylethyl)phenyl]thiophene-2-sulfonamide]
220	Cc1cc(S(=O)(=O)Nc2cccc(CCc3ccccn3)c2)c(C)s1 [Example 28, 2,5-dimethyl-N-[3-(2-pyridin-2-ylethyl)phenyl]thiophene-3-sulfonamide]
230	Cc1cc(C)cc(S(=O)(=O)Nc2cccc(CCc3ccccn3)c2)c1 [Example 29, 3,5-Dimethyl-N-[3-(2-pyridin-2-ylethyl)phenyl]benzenesulfonamide]
310	COc1cccc(S(=O)(=O)NCc2ccc(-c3ccc(Cl)cc3)s2)c1 [Example 30, N-{[5-(4-Chlorophenyl)-2-thienyl]methyl}-3-methoxybenzenesulfonamide]
330	COc1cc(C)c(S(=O)(=O)NCc2ccc(-c3ccc(Cl)cc3)s2)c(C)c1C [Example 31, N-{[5-(4-Chlorophenyl)-2-thienyl]methyl}-4-methoxy-2,3,6-trimethylbenzenesulfonamide]
